From US20030181527A1, “Novel formulations of alpha-2,4-disulfophenyl-n-tert-butylnitrone” (priority 2000, published 2003)
“Also recorded” adds a separate entry of the source.

Legend:
[1] = Stability after purging with different air/nitrogen gas mixtures; type: physicochemical; conditions: 400 mg/ml, pH 8.5; for Final Amount of Aldehyde (II) / Final Amount of Related Substances: 2 months +40° C./75% RH
Protocol: A concentrated aqueous solution of α-(2,4-disulfophenyl)-N-tert-butylnitrone disodium salt (400 mg/ml) and disodium hydrogen phosphate (5.3 mM) at pH 8.5 was purged with different levels of air/nitrogen gas mixtures. The solutions were stored in sealed 10 ml glass vials with a fill volume of 7 ml. The samples were stored for two months at +40° C. and 75% relative humidity.

[2] = Stability with air or nitrogen filled headspaces (Table 5); type: physicochemical; conditions: 400 mg/ml
Protocol: A 400 mg/ml concentrate of α-(2,4-disulfophenyl)-N-tert-butylnitrone disodium salt was prepared by adding α-(2,4-disulfophenyl)-N-tert-butylnitrone disodium salt (1500 g) to water for injection (2200 ml) containing dissolved disodium hydrogen phosphate dihydrate (3.51 g). The solution was then adjusted to pH 8.5 by the addition of 2M sodium hydroxide solution and then water for injection was added to give a final volume of 3750 ml. After preparation, the solution was purged with nitrogen for 90 minutes and then placed in 10 ml glass vials with a fill volume of 7.7 ml. Before stoppering the vials, the headspace was purged with nitrogen. […] The vials were stored either at +5° C. at ambient humidity or at +25° C. and 60% relative humidity.
A second batch of 400 mg/ml concentrate of α-(2,4-disulfophenyl)-N-tert-butylnitrone disodium salt buffered with 50 mM phosphate buffer was treated identically except that the headspace was filled with air not nitrogen and the fill volume was 10.5 ml.

[3] = Photodegradation of aqueous solutions under indoor light; type: physicochemical; conditions: 400 mg/ml aqueous concentrate, room temperature, 8 hours, disodium salt
[4] = Effect of concentration on stability, carbonate-buffered solutions, 40 days +40° C.; type: physicochemical; conditions: 50 mM sodium hydrogen carbonate; for Final Amount of Aldehyde (II): 40 days +40° C./75% RH
Protocol: In an experiment, aqueous solutions of three different concentrations of α-(2,4-disulfophenyl)-N-tert-butylnitrone disodium salt buffered with sodium hydrogen carbonate (50 mM) were dispensed into 20 ml glass vials, sealed, and then stored for 40 days at +40° C. and 75% relative humidity.

[5] = Effect of concentration on stability, unbuffered solutions at +5° C.; type: physicochemical
Protocol: In a second study unbuffered aqueous solutions of α-(2,4-disulfophenyl)-N-tert-butylnitrone disodium salt (concentration either 100 mg/ml or 200 mg/ml) were dispensed into 50 ml glass vials and stored at +5° C.

[6] = Effect of concentration on stability, phosphate-buffered solutions at +5° C.; type: physicochemical; conditions: 50 mM phosphate buffer
Protocol: In a third study aqueous solutions of α-(2,4-disulfophenyl)-N-tert-butylnitrone disodium salt (concentration either 200 mg/ml or 400 mg/ml) buffered with phosphate buffer (50 mM) were dispensed into 10 ml glass vials and stored at +5° C.

E. gergoviae = test: Antimicrobial efficacy (European Pharmacopoeia 2000, Chapter 5.1.3); type: cell-based; conditions: for Number of CFUs per ml - Time after Inoculation: E. gergoviae
Protocol: The antimicrobial efficacy was tested for three different solutions: […] iii) a carbonate buffer control. The tests were performed according to European Pharmacopoeia 2000, Chapter 5.1.3, pages 259 to 260. Seven 10 ml vials were inoculated, one per test organism. During the tests, the vials were stored at controlled room temperature and protected from light. At different time intervals, samples were withdrawn and after appropriate dilutions the numbers of viable microorganisms (colony forming units per ml, CFU/ml) were determined using standard plate count procedures.

[7] = unbuffered 100 mg/ml, 12 months
[8] = unbuffered 200 mg/ml, 12 months

Initial aldehyde (II) ([1]; 5.3 mM phosphate, initial): 0.25 area %
Initial related substances ([1]; 5.3 mM phosphate, initial): 0.56 area %
Final Amount of Aldehyde (II) ([1]; 0% air in purge gas): 0.57 area %
Final Amount of Related Substances ([1]; 0% air in purge gas): 1.3 area %
Final Amount of Aldehyde (II) ([1]; 6.25% air in purge gas): 0.68 ± 0.08 (n = 2) area %
Final Amount of Related Substances ([1]; 6.25% air in purge gas): 1.5 ± 0.1 (n = 2) area %
Final Amount of Aldehyde (II) ([1]; 12.5% air in purge gas): 0.63 ± 0.01 (n = 2) area %
Final Amount of Related Substances ([1]; 12.5% air in purge gas): 1.4 area %
Final Amount of Aldehyde (II) ([1]; 25% air in purge gas): 0.77 area %
Final Amount of Related Substances ([1]; 25% air in purge gas): 1.6 area %
Final Amount of Aldehyde (II) ([1]; 50% air in purge gas): 0.93 area %
Final Amount of Related Substances ([1]; 50% air in purge gas): 1.9 area %
Final Amount of Aldehyde (II) ([1]; 100% air in purge gas): 1.27 area %
Final Amount of Related Substances ([1]; 100% air in purge gas): 2.4 area %
Amount of Aldehyde (II) ([2]; 50 mM phosphate, air-filled headspace, fill 10.5 ml, +5° C., 0 months): 0.3 area %
Amount of Aldehyde (II) ([2]; 50 mM phosphate, air-filled headspace, fill 10.5 ml, +5° C., 3 months): 0.3 area %
Amount of Aldehyde (II) ([2]; 50 mM phosphate, air-filled headspace, fill 10.5 ml, +5° C., 6 months): 0.5 area %
Amount of Aldehyde (II) ([2]; 50 mM phosphate, air-filled headspace, fill 10.5 ml, +5° C., 12 months): 0.4 area %
Amount of Aldehyde (II) ([2]; 50 mM phosphate, air-filled headspace, fill 10.5 ml, +25° C./60% RH, 0 months): 0.3 area %
Amount of Aldehyde (II) ([2]; 50 mM phosphate, air-filled headspace, fill 10.5 ml, +25° C./60% RH, 3 months): 0.7 area %
Amount of Aldehyde (II) ([2]; 50 mM phosphate, air-filled headspace, fill 10.5 ml, +25° C./60% RH, 6 months): 1.0 area %
Amount of Aldehyde (II) ([2]; 50 mM phosphate, air-filled headspace, fill 10.5 ml, +25° C./60% RH, 12 months): 0.7 area %
Amount of Aldehyde (II) ([2]; pH 8.5, nitrogen-filled headspace, fill 7.7 ml, +5° C., 0 months): 0.2 area %
Amount of Aldehyde (II) ([2]; pH 8.5, nitrogen-filled headspace, fill 7.7 ml, +5° C., 3 months): 0.2 area %
Amount of Aldehyde (II) ([2]; pH 8.5, nitrogen-filled headspace, fill 7.7 ml, +5° C., 6 months): 0.2 area %
Amount of Aldehyde (II) ([2]; pH 8.5, nitrogen-filled headspace, fill 7.7 ml, +5° C., 12 months): 0.3 area %
Amount of Aldehyde (II) ([2]; pH 8.5, nitrogen-filled headspace, fill 7.7 ml, +25° C./60% RH, 0 months): 0.2 area %
Amount of Aldehyde (II) ([2]; pH 8.5, nitrogen-filled headspace, fill 7.7 ml, +25° C./60% RH, 3 months): 0.4 area %
Amount of Aldehyde (II) ([2]; pH 8.5, nitrogen-filled headspace, fill 7.7 ml, +25° C./60% RH, 6 months): 0.3 area %
Amount of Aldehyde (II) ([2]; pH 8.5, nitrogen-filled headspace, fill 7.7 ml, +25° C./60% RH, 12 months): 0.5 area %
Final Amount of Aldehyde (II) ([4]; 200 mg/ml): 3.5 Area %
Initial Amount of Aldehyde (II) ([4]; 200 mg/ml): 1.7 Area %
Final Amount of Aldehyde (II) ([4]; 300 mg/ml): 3.2 Area %
Initial Amount of Aldehyde (II) ([4]; 300 mg/ml): 1.7 Area %
Final Amount of Aldehyde (II) ([4]; 400 mg/ml): 2.9 Area %
Initial Amount of Aldehyde (II) ([4]; 400 mg/ml): 1.8 Area %
Amount of Aldehyde (II) ([5]; unbuffered 100 mg/ml, 0 months): 0.2 Area %
pH ([5]; unbuffered 100 mg/ml, 0 months): 7.4
Amount of Aldehyde (II) ([5]; unbuffered 100 mg/ml, 1 month): 0.5 Area %
pH ([5]; unbuffered 100 mg/ml, 1 month): 7.5
Amount of Aldehyde (II) ([5]; unbuffered 100 mg/ml, 3 months): 1.0 Area %
pH ([5]; unbuffered 100 mg/ml, 3 months): 7.3
Amount of Aldehyde (II) ([5]; unbuffered 100 mg/ml, 6 months): 1.6 Area %
pH ([5]; unbuffered 100 mg/ml, 6 months): 7.1
Amount of Aldehyde (II) [5, 7]: 1.6 Area %
pH [5, 7]: 6.9
Amount of Aldehyde (II) ([5]; unbuffered 200 mg/ml, 0 months): 0.2 Area %
pH ([5]; unbuffered 200 mg/ml, 0 months): 7.6
Amount of Aldehyde (II) ([5]; unbuffered 200 mg/ml, 1 month): 0.4 Area %
pH ([5]; unbuffered 200 mg/ml, 1 month): 7.6
Amount of Aldehyde (II) ([5]; unbuffered 200 mg/ml, 3 months): 0.6 Area %
pH ([5]; unbuffered 200 mg/ml, 3 months): 7.4
Amount of Aldehyde (II) ([5]; unbuffered 200 mg/ml, 6 months): 0.8 Area %
pH ([5]; unbuffered 200 mg/ml, 6 months): 7.4
Amount of Aldehyde (II) [5, 8]: 1.1 Area %
pH [5, 8]: 6.9
Amount of Aldehyde (II) ([6]; 200 mg/ml, 0 months): 0.1 Area %
pH ([6]; 200 mg/ml, 0 months): 8.0
Amount of Aldehyde (II) ([6]; 200 mg/ml, 6 months): 0.4 Area %
pH ([6]; 200 mg/ml, 6 months): 7.9
Amount of Aldehyde (II) ([6]; 200 mg/ml, 12 months): 0.6 Area %
pH ([6]; 200 mg/ml, 12 months): 7.9
Amount of Aldehyde (II) ([6]; 200 mg/ml, 18 months): 0.7 Area %
pH ([6]; 200 mg/ml, 18 months): 8.0
Amount of Aldehyde (II) ([6]; 400 mg/ml, 0 months): 0.1 Area %
pH ([6]; 400 mg/ml, 0 months): 8.0
Amount of Aldehyde (II) ([6]; 400 mg/ml, 6 months): 0.3 Area %
pH ([6]; 400 mg/ml, 6 months): 7.8
Amount of Aldehyde (II) ([6]; 400 mg/ml, 12 months): 0.4 Area %
pH ([6]; 400 mg/ml, 12 months): 7.8
Amount of Aldehyde (II) ([6]; 400 mg/ml, 18 months): 0.4 Area %
pH ([6]; 400 mg/ml, 18 months): 7.9
SMILES: CC(C)(C)[N+]([O-])=Cc1ccc(S(=O)(=O)[O-])cc1S(=O)(=O)[O-].[Na+].[Na+] [α-(2,4-disulfophenyl)-N-tert-butylnitrone disodium salt]
Photodegradation [3]: no photodegradation; also recorded: no degradation at all
Number of CFUs per ml - Time after Inoculation (E. gergoviae; 10 mg/ml, 6 h): 2.0 × 10^5 CFUs per ml
Number of CFUs per ml - Time after Inoculation (E. gergoviae; 10 mg/ml, 24 h): ≦10 CFUs per ml
Number of CFUs per ml - Time after Inoculation (E. gergoviae; 10 mg/ml, 48 h): <1 CFUs per ml
Number of CFUs per ml - Time after Inoculation (E. gergoviae; 10 mg/ml, 7 days): <1 CFUs per ml
Number of CFUs per ml - Time after Inoculation (E. gergoviae; 10 mg/ml, 14 days): <1 CFUs per ml
Number of CFUs per ml - Time after Inoculation (E. gergoviae; 10 mg/ml, 21 days): <1 CFUs per ml
Number of CFUs per ml - Time after Inoculation (E. gergoviae; 10 mg/ml, 28 days): <1 CFUs per ml
Number of CFUs per ml - Time after Inoculation (E. gergoviae; 10 mg/ml, <1 min): 8.0 × 10^5 CFUs per ml
Reduction in colony forming units per ml (CFU/ml) (E. gergoviae; 400 mg/ml, E. gergovia, within 6 hours): ≥ 10^3 fold
Number of CFUs per ml - Time after Inoculation (E. gergoviae; 400 mg/ml, 6 h): 1.3 × 10^2 CFUs per ml
Number of CFUs per ml - Time after Inoculation (E. gergoviae; 400 mg/ml, 24 h): <1 CFUs per ml
Number of CFUs per ml - Time after Inoculation (E. gergoviae; 400 mg/ml, 48 h): <1 CFUs per ml
Number of CFUs per ml - Time after Inoculation (E. gergoviae; 400 mg/ml, 7 days): <1 CFUs per ml
Number of CFUs per ml - Time after Inoculation (E. gergoviae; 400 mg/ml, 14 days): <1 CFUs per ml
Number of CFUs per ml - Time after Inoculation (E. gergoviae; 400 mg/ml, 21 days): <1 CFUs per ml
Number of CFUs per ml - Time after Inoculation (E. gergoviae; 400 mg/ml, 28 days): <1 CFUs per ml
Number of CFUs per ml - Time after Inoculation (E. gergoviae; 400 mg/ml, <1 min): 5.2 × 10^5 CFUs per ml
